Species on record: Rattus norvegicus
Test: Open TG-GATES - Regimen: Daily Repeat
Format: toxicity, organism-based, Sprague-Dawley
Design: regimen Daily Repeat, gender Male, age 6 weeks
Conditions: in vivo, po, 20 mg/kg, route gavage, dose level Middle; for APTT / Bas / Eos / Fbg / Hb / Ht / Lym / MCH / MCHC / MCV / Mono / Neu / PT / Plat / RBC / Ret / WBC: tissue Blood; for KIDNEY_L / KIDNEY_R / KIDNEY_TOTAL: tissue Kidney; for LIVER: tissue Liver; for A/G / ALP / ALT / AST / BUN / CRE / Ca / Cl / DBIL / GLC / IP / K / LDH / Na / PL / RALB / TBIL / TC / TG / TP / gamma-GTP: tissue Plasma

SMILES: CC(C)NNC(=O)c1ccncc1 [IPRONIAZID]
- TERMINAL_BW (72 h, time 3 day): 194.3 g
- APTT (72 h, time 3 day): 22.2 s
- Bas (72 h, time 3 day): 0%
- Eos (72 h, time 3 day): 1%
- Fbg (72 h, time 3 day): 299.2 mg/dL
- Hb (72 h, time 3 day): 14.1 g/dL
- Ht (72 h, time 3 day): 40.8%
- Lym (72 h, time 3 day): 78.8%
- MCH (72 h, time 3 day): 20.7 pg
- MCHC (72 h, time 3 day): 34.6%
- MCV (72 h, time 3 day): 59.9 fL
- Mono (72 h, time 3 day): 2.4%
- Neu (72 h, time 3 day): 17.6%
- PT (72 h, time 3 day): 16.5 s
- Plat (72 h, time 3 day): 134 x10_4/uL
- RBC (72 h, time 3 day): 682.6 x10_4/ul
- Ret (72 h, time 3 day): 5.9%
- WBC (72 h, time 3 day): 72.4 x10_2/uL
- KIDNEY_L (72 h, time 3 day): 0.8 g
- KIDNEY_R (72 h, time 3 day): 0.9 g
- KIDNEY_TOTAL (72 h, time 3 day): 1.7 g
- LIVER (72 h, time 3 day): 8.7 g
- A/G (72 h, time 3 day): 1.2
- ALP (72 h, time 3 day): 1696.2 IU/L
- ALT (72 h, time 3 day): 42 IU/L
- AST (72 h, time 3 day): 74 IU/L
- BUN (72 h, time 3 day): 19.2 mg/dL
- CRE (72 h, time 3 day): 0.2 mg/dL
- Ca (72 h, time 3 day): 10.5 mg/dL
- Cl (72 h, time 3 day): 108.2 meq/L
- DBIL (72 h, time 3 day): 0.002 mg/dL
- GLC (72 h, time 3 day): 175 mg/dL
- IP (72 h, time 3 day): 7.1 mg/dL
- K (72 h, time 3 day): 4.4 meq/L
- LDH (72 h, time 3 day): 262 IU/L
- Na (72 h, time 3 day): 143.2 meq/L
- PL (72 h, time 3 day): 150.8 mg/dL
- RALB (72 h, time 3 day): 3.3 g/dL
- TBIL (72 h, time 3 day): 0.01 mg/dL
- TC (72 h, time 3 day): 80.6 mg/dL
- TG (72 h, time 3 day): 105.2 mg/dL
- TP (72 h, time 3 day): 5.9 g/dL
- gamma-GTP (72 h, time 3 day): 1 IU/L
- TERMINAL_BW ([…], time 7 day): 222.7 g
- TERMINAL_BW ([…], time 14 day): 259.4 g
- TERMINAL_BW ([…], time 28 day): 331.2 g
- APTT ([…], time 7 day): 22.7 s
- Bas ([…], time 7 day): 0%
- Eos ([…], time 7 day): 1%
- Fbg ([…], time 7 day): 311.4 mg/dL
- Hb ([…], time 7 day): 13.3 g/dL
- Ht ([…], time 7 day): 37.6%
- Lym ([…], time 7 day): 82.2%
- MCH ([…], time 7 day): 20.5 pg
- MCHC ([…], time 7 day): 35.4%
- MCV ([…], time 7 day): 57.8 fL
- Mono ([…], time 7 day): 1.8%
- Neu ([…], time 7 day): 13.8%
- PT ([…], time 7 day): 15.4 s
- Plat ([…], time 7 day): 122.6 x10_4/uL
- RBC ([…], time 7 day): 651.6 x10_4/ul
- Ret ([…], time 7 day): 4.2%
- WBC ([…], time 7 day): 73.7 x10_2/uL
- APTT ([…], time 14 day): 20.5 s
- Bas ([…], time 14 day): 0%
- Eos ([…], time 14 day): 0.6%
- Fbg ([…], time 14 day): 320.6 mg/dL
- Hb ([…], time 14 day): 12.5 g/dL
- Ht ([…], time 14 day): 36.8%
- Lym ([…], time 14 day): 76%
- MCH ([…], time 14 day): 19.9 pg
- MCHC ([…], time 14 day): 34%
- MCV ([…], time 14 day): 58.7 fL
- Mono ([…], time 14 day): 2.2%
- Neu ([…], time 14 day): 20.4%
- PT ([…], time 14 day): 16.1 s
- Plat ([…], time 14 day): 122.7 x10_4/uL
- RBC ([…], time 14 day): 628 x10_4/ul
- Ret ([…], time 14 day): 8.9%
- WBC ([…], time 14 day): 105.3 x10_2/uL
- APTT ([…], time 28 day): 24 s
- Bas ([…], time 28 day): 0%
- Eos ([…], time 28 day): 1%
- Fbg ([…], time 28 day): 313.2 mg/dL
- Hb ([…], time 28 day): 13.5 g/dL
- Ht ([…], time 28 day): 39%
- Lym ([…], time 28 day): 80.8%
- MCH ([…], time 28 day): 20.6 pg
- MCHC ([…], time 28 day): 34.5%
- MCV ([…], time 28 day): 59.6 fL
- Mono ([…], time 28 day): 1.2%
- Neu ([…], time 28 day): 16.6%
- PT ([…], time 28 day): 16.3 s
- Plat ([…], time 28 day): 108.1 x10_4/uL
- RBC ([…], time 28 day): 654.8 x10_4/ul
- Ret ([…], time 28 day): 6.7%
- WBC ([…], time 28 day): 133.5 x10_2/uL
- KIDNEY_L ([…], time 7 day): 0.9 g
- KIDNEY_R ([…], time 7 day): 0.9 g
- KIDNEY_TOTAL ([…], time 7 day): 1.8 g
- KIDNEY_L ([…], time 14 day): 1 g
- KIDNEY_R ([…], time 14 day): 1 g
- KIDNEY_TOTAL ([…], time 14 day): 2.1 g
- KIDNEY_L ([…], time 28 day): 1.2 g
- KIDNEY_R ([…], time 28 day): 1.2 g
- KIDNEY_TOTAL ([…], time 28 day): 2.4 g
- LIVER ([…], time 7 day): 9.4 g
- LIVER ([…], time 14 day): 10.8 g
- LIVER ([…], time 28 day): 12.6 g
- A/G ([…], time 7 day): 1.2
- ALP ([…], time 7 day): 1298.6 IU/L
- ALT ([…], time 7 day): 36.2 IU/L
- AST ([…], time 7 day): 75 IU/L
- BUN ([…], time 7 day): 18.6 mg/dL
- CRE ([…], time 7 day): 0.2 mg/dL
- Ca ([…], time 7 day): 10.4 mg/dL
- Cl ([…], time 7 day): 107.6 meq/L
- DBIL ([…], time 7 day): 0.004 mg/dL
- GLC ([…], time 7 day): 179.4 mg/dL
- IP ([…], time 7 day): 6.6 mg/dL
- K ([…], time 7 day): 4.2 meq/L
- LDH ([…], time 7 day): 206.4 IU/L
- Na ([…], time 7 day): 142.2 meq/L
- PL ([…], time 7 day): 154.8 mg/dL
- RALB ([…], time 7 day): 3.1 g/dL
- TBIL ([…], time 7 day): 0.006 mg/dL
- TC ([…], time 7 day): 88.6 mg/dL
- TG ([…], time 7 day): 89 mg/dL
- TP ([…], time 7 day): 5.7 g/dL
- gamma-GTP ([…], time 7 day): 1.4 IU/L
- A/G ([…], time 14 day): 1.1
- ALP ([…], time 14 day): 1067 IU/L
- ALT ([…], time 14 day): 40.2 IU/L
- AST ([…], time 14 day): 70.8 IU/L
- BUN ([…], time 14 day): 18.2 mg/dL
- CRE ([…], time 14 day): 0.2 mg/dL
- Ca ([…], time 14 day): 10.4 mg/dL
- Cl ([…], time 14 day): 106.6 meq/L
- DBIL ([…], time 14 day): 0.004 mg/dL
- GLC ([…], time 14 day): 182.6 mg/dL
- IP ([…], time 14 day): 6.7 mg/dL
- K ([…], time 14 day): 4.3 meq/L
- LDH ([…], time 14 day): 154.6 IU/L
- Na ([…], time 14 day): 142.2 meq/L
- PL ([…], time 14 day): 153.8 mg/dL
- RALB ([…], time 14 day): 3 g/dL
- TBIL ([…], time 14 day): 0.026 mg/dL
- TC ([…], time 14 day): 85 mg/dL
- TG ([…], time 14 day): 118.6 mg/dL
- TP ([…], time 14 day): 5.7 g/dL
- gamma-GTP ([…], time 14 day): 1.8 IU/L
- A/G ([…], time 28 day): 1.1
- ALP ([…], time 28 day): 1143.8 IU/L
- ALT ([…], time 28 day): 37.2 IU/L
- AST ([…], time 28 day): 68 IU/L
- BUN ([…], time 28 day): 17.4 mg/dL
- CRE ([…], time 28 day): 0.2 mg/dL
- Ca ([…], time 28 day): 10.4 mg/dL
- Cl ([…], time 28 day): 106.2 meq/L
- DBIL ([…], time 28 day): 0 mg/dL
- GLC ([…], time 28 day): 184.2 mg/dL
- IP ([…], time 28 day): 6.9 mg/dL
- K ([…], time 28 day): 4.2 meq/L
- LDH ([…], time 28 day): 157.6 IU/L
- Na ([…], time 28 day): 141.8 meq/L
- PL ([…], time 28 day): 138.4 mg/dL
- RALB ([…], time 28 day): 3.1 g/dL
- TBIL ([…], time 28 day): 0.038 mg/dL
- TC ([…], time 28 day): 68.4 mg/dL
- TG ([…], time 28 day): 122.6 mg/dL
- TP ([…], time 28 day): 5.9 g/dL
- gamma-GTP ([…], time 28 day): 2.2 IU/L

— ChEMBL document CHEMBL3885861, “Open TG-GATES”
